The supplement of paper PMC10883282

Assays:
Assay in all cases: relative viability vs DMSO control (72 h) (fraction); higher = more viable cells
KHOS-240S = tested on: KHOS-240S
Procedure, shortened: (§1)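 After seeding at densities set for 80–90% confluence in 384-well plates, sarcoma cell lines waited 24 h before 2.5 µl of serially diluted compound was added. Source plates held 10 mM down to 0.0002 mM. Plates were incubated 72 h at 37 °C with 5% CO2, with 0.1% DMSO vehicle and a 5 µM positive control, and relative viability was taken from ATPLite as percent growth averaged over up to triplicate wells, with 1 set as full and 0 as none.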

RD-ES = tested on: RD-ES
Procedure, shortened: as §1

RD = tested on: RD
Procedure, shortened: as §1

SK-ES-1 = tested on: SK-ES-1
Procedure, shortened: as §1

SW982 = tested on: SW982
Procedure, shortened: as §1

COc1cc(Nc2ncc3c(n2)-c2ccc(Cl)cc2C(c2c(F)cccc2OC)=NC3)ccc1C(=O)O [Alisertib]
relative viability
Conditions	KHOS-240S	RD	RD-ES	SK-ES-1	SW982
0.00017 µM	1.04	1.08	0.95	1.01	1.01
0.00051 µM	1.04	1.1	0.964	1.05	1.01
0.00152 µM	1.03	1.09	0.952	1.05	1.03
0.00457 µM	1.01	1.06	0.909	1.01	1.02
0.01372 µM	0.996	1.07	0.881	0.965	1.03
0.04115 µM	0.884	1.04	0.747	0.748	0.968
0.1235 µM	0.807	0.863	0.428	0.197	0.583
0.3704 µM	0.758	0.679	0.256	0.0886	0.464
1.111 µM	0.739	0.517	0.213	0.0443	0.37
3.333 µM	0.681	0.517	0.243	0.0464	0.348
10 µM	0.622	0.474	0.236	0.0555	0.361

CCOc1cc2ncc(C#N)c(Nc3ccc(OCc4ccccn4)c(Cl)c3)c2cc1NC(=O)/C=C/CN(C)C [Neratinib]
relative viability
Conditions	KHOS-240S	RD	RD-ES	SK-ES-1	SW982
0.00017 µM	1.03	1.12	1.03	1.05	1.06
0.00051 µM	1.06	1.1	1.01	1.02	1.07
0.00152 µM	1.06	1.11	0.999	1.04	1.05
0.00457 µM	1.06	1.11	0.996	1.01	1.04
0.01372 µM	1.05	1.09	0.997	1.01	1.05
0.04115 µM	1.03	1.072	0.977	0.963	1
0.1235 µM	1	0.95	0.938	0.797	0.87
0.3704 µM	0.896	0.714	0.737	0.397	0.483
1.111 µM	0.741	0.562	0.498	0.298	0.379
3.333 µM	0.618	0.384	0.431	0.235	0.215
10 µM	0.338	0.0033	0.345	0.00187	0.0234

Cn1cnc2c(F)c(Nc3ccc(Br)cc3Cl)c(C(=O)NOCCO)cc21 [Selumetinib]
relative viability
Conditions	KHOS-240S	RD	RD-ES	SK-ES-1	SW982
0.00017 µM	1.03	1.06	0.958	0.944	1.01
0.00051 µM	1.03	1.04	0.942	0.961	1.01
0.00152 µM	1.01	1.04	0.95	0.951	1.02
0.00457 µM	0.999	0.977	0.985	0.956	1.01
0.01372 µM	0.959	0.931	0.973	0.951	0.99
0.04115 µM	0.949	0.875	0.965	0.929	0.956
0.1235 µM	0.91	0.749	0.927	0.932	0.9336
0.3704 µM	0.8785	0.703	0.942	0.925	0.902
1.111 µM	0.864	0.632	0.935	0.925	0.876
3.333 µM	0.782	0.593	0.933	0.925	0.835
10 µM	0.723	0.543	0.855	0.87	0.804

CS(=O)(=O)CCNCc1ccc(-c2ccc3ncnc(Nc4ccc(OCc5cccc(F)c5)c(Cl)c4)c3c2)o1 [Lapatinib]
relative viability
Conditions	KHOS-240S	RD	RD-ES	SK-ES-1	SW982
0.00017 µM	1.04	1.09	0.951	1.05	1.04
0.00051 µM	1.05	1.1	0.948	1.04	1.04
0.00152 µM	1.07	1.09	0.954	1.02	1.06
0.00457 µM	1.06	1.11	0.958	0.98	1.03
0.01372 µM	1.09	1.08	0.963	1.06	1.05
0.04115 µM	1.09	1.12	0.964	0.985	1.06
0.1235 µM	1.07	1.09	0.97	1.02	1.07
0.3704 µM	1.09	1.1	0.977	1.02	1.09
1.111 µM	1.08	1.1	0.951	0.983	1.09
3.333 µM	0.65	0.98	0.931	0.772	0.968
10 µM	0.345	0.0224	0.909	0.0529	0.0107

C=CC(=O)N1CCC(CNc2ncnc(N)c2-c2ccc(Oc3ccccc3)cc2)CC1 [Evobrutinib]
relative viability
Conditions	KHOS-240S	RD	RD-ES	SK-ES-1	SW982
0.00017 µM	1.09	1.06	0.985	1.12	1.04
0.00051 µM	1.06	1.09	1	1.14	1.09
0.00152 µM	1.08	1.09	0.99	1.1	1.11
0.00457 µM	1.12	1.08	1	1.04	1.07
0.01372 µM	1.1	1.11	1	1.04	1.08
0.04115 µM	1.09	1.11	1.03	1.09	1.068
0.1235 µM	1.08	1.12	1.01	1.05	1.086
0.3704 µM	1.07	1.09	0.981	1.06	1.07
1.111 µM	1.07	1.08	0.9603	1.03	1.06
3.333 µM	1.04	1.07	0.976	1.01	1.07
10 µM	1.03	1.11	0.946	1.02	1.12

CNC(=O)c1c(C)oc2cc(Oc3ncnc4cc(OC)c(OC)cc34)ccc12 [Fruquintinib]
relative viability
Conditions	KHOS-240S	RD	RD-ES	SK-ES-1	SW982
0.00017 µM	1.06	1.03	0.93	1.01	1.03
0.00051 µM	1.07	1.09	0.979	1.07	1.03
0.00152 µM	1.08	1.09	0.968	1.04	1.04
0.00457 µM	1.07	1.1	0.952	1.07	1.02
0.01372 µM	1.07	1.07	0.971	1.06	1.03
0.04115 µM	1.08	1.08	0.935	1.1	1.04
0.1235 µM	1.03	1.06	0.968	1.05	1.048
0.3704 µM	0.987	1.089	0.934	1	1.04
1.111 µM	0.9394	1.08	0.945	0.971	1.04
3.333 µM	0.8	1.08	0.917	0.951	0.992
10 µM	0.755	1.04	0.928	0.926	0.925

C[C@@H]1CN(C(=O)c2ccc(NC(=O)c3cc(O[C@H](C)c4c(Cl)ccc(F)c4Cl)c(N)nn3)cc2)C[C@H](C)N1 [Ensartinib]
relative viability
Conditions	KHOS-240S	RD	RD-ES	SK-ES-1	SW982
0.00017 µM	0.995	1.01	0.97	0.934	0.966
0.00051 µM	1.02	1.02	0.951	0.966	0.95947
0.00152 µM	1.02	1.06	0.989	0.987	0.986
0.00457 µM	1	1.06	0.963	1	0.973
0.01372 µM	1.03	1.028	0.985	0.974	0.97
0.04115 µM	1.02	1.028	0.974	0.972	0.965
0.1235 µM	1.01	0.972	0.975	0.97	0.982
0.3704 µM	0.994	0.9011	0.826	0.857	0.855
1.111 µM	0.847	0.683	0.567	0.457	0.513
3.333 µM	0.579	0.561	0.0894	0.0368	0.206
10 µM	0.135	0.0738	0.00693	0.00643	0.009967

CC(=O)c1c(C)c2cnc(Nc3ccc(N4CCNCC4)cn3)nc2n(C2CCCC2)c1=O [Palbociclib]
relative viability
Conditions	KHOS-240S	RD	RD-ES	SK-ES-1	SW982
0.00017 µM	1.07	1.03	0.959	1	1.03
0.00051 µM	1.07	1.08	0.9884	1.07	1.08
0.00152 µM	1.08	1.11	0.98	1.03	1.06
0.00457 µM	1.07	1.09	0.931	1.02	1.05
0.01372 µM	1.07	1.08	0.917	0.9868	1.01
0.04115 µM	1.01	1.09	0.835	0.865	0.936
0.1235 µM	0.945	1.05	0.735	0.674	0.845
0.3704 µM	0.843	1.01	0.652	0.512	0.737
1.111 µM	0.734	0.968	0.603	0.467	0.6424
3.333 µM	0.681	0.905	0.563	0.407	0.487
10 µM	0.607	0.276	0.18	0.241	0.222

O=S(=O)(c1cccc2c(O)nccc12)N1CCCNCC1 [Hydroxyfasudil]
relative viability
Conditions	KHOS-240S	RD	RD-ES	SK-ES-1	SW982
0.00017 µM	1.1	1.089	0.996	1.09	1.02
0.00051 µM	1.1	1.14	1.02	1.09	1.05
0.00152 µM	1.1	1.16	1	1.06	1.05
0.00457 µM	1.11	1.14	1.01	1.05	1.081
0.01372 µM	1.1	1.15	1.01	1.07	1.05
0.04115 µM	1.1	1.16	1.011	1.1	1.06
0.1235 µM	1.11	1.15	1.03	1.06	1.073
0.3704 µM	1.1	1.16	1.04	1.08	1.06
1.111 µM	1.04	1.17	1.03	1.07	1.04
3.333 µM	0.998	1.17	1.04	1.04	1.041
10 µM	0.906	1.18	1.06	1.02	0.92
